Experimental data reported in patent US7544814B2, “[3.2.0] Heterocyclic compounds and methods of using the same” (Nereus Pharmaceuticals, Inc., priority 2004, dated 2009).
“And” between values parts separate entries of the source, which are not always exact repeats. Identical values can stand only once. Like-named read-outs stand apart in the source and are kept apart here.

Legend:
[1] = test system: RPMI 8226; assay: Cell growth inhibition (resazurin), RPMI 8226; conditions: for EC50: 48 hours drug exposure
[2] = test system: B16-F10; assay: Cell growth inhibition (resazurin), B16-F10
[3] = test system: PC-3; assay: Cell growth inhibition (resazurin), PC-3; type: cell-based, human
[4] = test system: NCI-H292; assay: Cell growth inhibition (resazurin), NCI-H292
[5] = test system: MDA-MB-231; assay: Cell growth inhibition (resazurin), MDA-MB-231
[6] = test system: NF-κB; assay: NF-κB-mediated luciferase reporter gene assay, HEK293 NF-κB/Luc cells, TNF-α stimulation; type: cell-based, human
Method in brief: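 Cells seeded at 1.5×10^4/well in phenol-red free DMEM, pretreated 1 h with 8-point half-log compound dilutions (DMSO stocks), then stimulated with TNF-α (10 μl of 50 ng/ml solution) for 6 h. Luciferase read as RLU after 10 min with Steady Lite reagent at room temperature.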

[7] = test system: U266; assay: Cell growth inhibition (resazurin), U266; conditions: for EC50: 48 hours drug exposure
[8] = biological target: T1, chymotrypsin-like activity of purified rabbit muscle 20S proteasome (Oryctolagus cuniculus, UniProt G1T4Q9); assay: In vitro inhibition of 20S proteasome chymotrypsin-like activity (suc-LLVY-AMC); conditions: EC50 Chymotrypsin-like, Table 6, values in nM
T1 sequence (G1T4Q9 1-263): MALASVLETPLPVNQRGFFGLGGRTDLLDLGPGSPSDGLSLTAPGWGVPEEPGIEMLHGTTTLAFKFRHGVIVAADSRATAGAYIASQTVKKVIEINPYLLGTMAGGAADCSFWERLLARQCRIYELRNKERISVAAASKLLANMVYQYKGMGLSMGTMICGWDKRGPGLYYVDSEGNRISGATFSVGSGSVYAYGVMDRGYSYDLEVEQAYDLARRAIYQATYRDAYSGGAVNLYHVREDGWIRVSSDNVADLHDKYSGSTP

[9] = test system: LeTx-mediated cytotoxicity of RAW 264.7 cells; conditions: read-out: EC50 for inhibition of RAW 264.7 cell cytotoxicity mediated by anthrax lethal toxin; 45 minute preincubation, 1 μg/ml LF and PA, six hours; maximum concentration 330 nM
[10] = biological target: T2, caspase-like activity of purified rabbit muscle 20S proteasome (Oryctolagus cuniculus, UniProt A0A5F9DQW2); assay: In vitro inhibition of 20S proteasome caspase-like activity (Z-LLE-AMC)
T2 sequence (A0A5F9DQW2 1-212): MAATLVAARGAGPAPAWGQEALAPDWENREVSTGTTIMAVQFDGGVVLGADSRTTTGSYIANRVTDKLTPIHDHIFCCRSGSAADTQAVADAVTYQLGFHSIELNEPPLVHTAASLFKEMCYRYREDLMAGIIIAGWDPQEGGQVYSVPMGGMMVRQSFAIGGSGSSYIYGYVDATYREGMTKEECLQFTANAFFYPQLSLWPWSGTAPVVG

[11] = biological target: T3, trypsin-like activity of purified rabbit muscle 20S proteasome (Oryctolagus cuniculus, UniProt G1SWK8); assay: In vitro inhibition of 20S proteasome trypsin-like activity (Boc-LRR-AMC); conditions: under the conditions tested
T3 sequence (G1SWK8 1-271): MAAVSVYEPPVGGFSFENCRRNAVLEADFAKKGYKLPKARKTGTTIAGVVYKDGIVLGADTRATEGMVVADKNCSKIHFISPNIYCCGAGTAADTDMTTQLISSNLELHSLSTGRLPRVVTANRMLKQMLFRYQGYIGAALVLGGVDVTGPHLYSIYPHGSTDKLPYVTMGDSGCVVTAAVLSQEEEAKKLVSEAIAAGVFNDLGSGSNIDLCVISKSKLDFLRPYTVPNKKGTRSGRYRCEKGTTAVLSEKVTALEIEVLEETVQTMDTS

[12] = test system: HT-29; assay: Cell growth inhibition (resazurin), HT-29
[13] = test system: OVCAR-3; assay: Cell growth inhibition (resazurin), OVCAR-3; conditions: from EC50 values

Compound: C[C@@]12OC(=O)[C@]1([C@@H](O)[C@H]1CCCC3OC31)NC(=O)[C@@H]2CCCl (single isomer, unassigned) [Formula II-5B]
- cytotoxicity against RPMI 8226, in words ([1]; from EC50 values): cytotoxic
- EC50 ([1]; read-out: EC50 against RPMI 8226, Table 1): 0.328 µM
- EC50 ([1]; read-out: RPMI 8226 EC50, Table 2, mean ± SD where n≥3): 0.326 µM and 0.328 µM
- cytotoxicity against B16-F10, in words ([2]; from EC50 values): cytotoxic
- EC50 ([2]; read-out: EC50 against B16-F10, Table 1, 48 hours drug exposure, mean ± SD where n≥3): 1.14 µM
- EC50 ([3]; Table 1, 48 hours drug exposure, mean ± SD where n≥3, read-out: EC50 against PC-3): 1.33 µM
- cytotoxicity against PC-3, in words ([3]; from EC50 values): cytotoxic
- cytotoxicity against NCI-H292, in words ([4]; from EC50 values): cytotoxic
- EC50 ([4]; read-out: EC50 against NCI-H292, Table 1, 48 hours drug exposure, mean ± SD where n≥3): 1.25 µM
- cytotoxicity against MDA-MB-231, in words ([5]; from EC50 values): cytotoxic
- EC50 ([5]; read-out: EC50 against MDA-MB-231, Table 1, 48 hours drug exposure, mean ± SD where n≥3): 0.957 µM
- effect on luciferase activity upon TNF-α stimulation, in words ([6]; pretreatment of NF-κB/Luc 293 cells): dose-dependent decrease
- EC50 ([6]; read-out: EC50, NF-κB-mediated luciferase reporter gene assay, Table 5, values in nM, 1 hr pretreatment, TNF-α 6 hr): 279 nM
- cytotoxicity against U266, in words ([7]; from EC50 values): cytotoxic
- EC50 ([7]; read-out: EC50 against U266, Table 1): 0.111 µM
- EC50 ([7]; read-out: U266 EC50, Table 2): 0.118 µM and 0.111 µM
- EC50 [8]: 85 nM
- EC50 [9]: 0.045 µM
- EC50 ([10]; EC50 Caspase-like, Table 6, values in μM): 3.8 µM and 2.9 µM
- EC50 ([10]; EC50 values, caspase-like activity, range in mixed units, summary of Table 6, range from nM to μM): 0.956 to 8.7 µM
- inhibition of the trypsin-like activity of the 20S proteasome, in words [11]: able to inhibit
- cytotoxicity against HT-29, in words ([12]; from EC50 values): cytotoxic
- EC50 ([12]; read-out: EC50 against HT-29, Table 1, 48 hours drug exposure, mean ± SD where n≥3): 1.21 µM
- cytotoxicity against OVCAR-3, in words [13]: cytotoxic
